# Key:
# Type in all cases: cell-based
# E. coli NIHJ = assay: bioautography (TLC); details: TLC Merck silica gel F254, E. coli NIHJ
# Procedure: 2.5 mg of the compound obtained in Example 4 (C) was suspended in 0.5 ml of methanol, and 35 μl of concentrated aqueous ammonia was added thereto. The mixture was left to stand at room temperature for 1 hour. […] The fraction of this peak was separated and freeze-dried to obtain 1 mg of the above identified compound.
# bacteria = assay: antibacterial spectrum of the compound of Example 6; details: compared with the compound of Example 3 (E)
# E. coli CSH2 = assay: MIC by agar plate dilution method; details: Escherichia coli, 10^6 CFU/ml, read-out: Minimum Inhibitory Concentration
# In short: (§1)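 Agar dilution, Sensitivity Disk Agar; inoculum 10^6 CFU/ml; MIC reported as μg/ml; cefotaxime and ceftazidime run as comparators.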
# P. aeruginosa AK109 = assay: MIC by agar plate dilution method; details: Pseudomonas aeruginosa, AK109, P. aeruginosa AK109; 10^6 CFU/ml; read-out: Minimum Inhibitory Concentration
# In short: as §1
# E. coli NIHJJC-2 = assay: MIC by agar plate dilution method; details: Escherichia coli, NIHJJC2, E. coli NIHJJC-2; 10^6 CFU/ml; read-out: Minimum Inhibitory Concentration
# In short: as §1
# K. pneumoniae No. 42 = assay: MIC by agar plate dilution method; details: Klebsiella pneumoniae, NO.42, read-out: Minimum Inhibitory Concentration
# In short: as §1
# P. vulgaris OB1043 = assay: MIC by agar plate dilution method; details: Proteus vulgaris, OB1043, P. vulgaris OB1043; 10^6 CFU/ml; read-out: Minimum Inhibitory Concentration
# In short: as §1
# S. aureus JS-1 = assay: MIC by agar plate dilution method; details: Staphylococcus aureus, JS1; S. aureus JS-1; 10^6 CFU/ml; read-out: Minimum Inhibitory Concentration
# In short: as §1
# E. coli W3630/Rms212 = assay: MIC by agar plate dilution method; details: Escherichia coli, W3630/RMS212, read-out: Minimum Inhibitory Concentration, E. coli W3630/Rms212; 10^6 CFU/ml
# In short: as §1
# C. freundii No. 7 = assay: MIC by agar plate dilution method; details: Citrobacter freundii; C. freundii No. 7; 10^6 CFU/ml; read-out: Minimum Inhibitory Concentration
# In short: as §1
# E. coli W3630/Rms213 = assay: MIC by agar plate dilution method; details: Escherichia coli, W3630/RMS213, read-out: Minimum Inhibitory Concentration, E. coli W3630/Rms213; 10^6 CFU/ml
# In short: as §1
# P. mirabilis JY10 = assay: MIC by agar plate dilution method; details: Proteus mirabilis; P. mirabilis JY10; 10^6 CFU/ml; read-out: Minimum Inhibitory Concentration
# In short: as §1
# E. coli CSH = assay: MIC by agar plate dilution method; details: Escherichia coli, 10^6 CFU/ml, read-out: Minimum Inhibitory Concentration
# In short: as §1
# E. coli C/Rms149 = assay: MIC by agar plate dilution method; details: Escherichia coli, read-out: Minimum Inhibitory Concentration, E. coli C/Rms149; 10^6 CFU/ml
# In short: as §1
# E. cloaceae Nek 39 = assay: MIC by agar plate dilution method; details: E. cloaceae Nek 39; 10^6 CFU/ml; read-out: Minimum Inhibitory Concentration
# In short: as §1
# P. vulgaris No. 33 = assay: MIC by agar plate dilution method; details: Proteus vulgaris; P. vulgaris No. 33; 10^6 CFU/ml; read-out: Minimum Inhibitory Concentration
# In short: as §1
# P. aeruginosa AKR17 = assay: MIC by agar plate dilution method; details: Pseudomonas aeruginosa, AKR17, P. aeruginosa AKR17; 10^6 CFU/ml; read-out: Minimum Inhibitory Concentration
# In short: as §1
# A. calcoaceticus No. 14 = assay: MIC by agar plate dilution method; details: Acinetobacter calcoaceticus, NO.14, A. calcoaceticus No. 14; 10^6 CFU/ml; read-out: Minimum Inhibitory Concentration
# In short: as §1
# S. marcescens No. 16-2 = assay: MIC by agar plate dilution method; details: Serratia marcescens, NO.162; S. marcescens No. 16-2; 10^6 CFU/ml; read-out: Minimum Inhibitory Concentration
# In short: as §1
# S. aureus NIHJJC-1 = assay: MIC by agar plate dilution method; details: Staphylococcus aureus, NIHJJC1, read-out: Minimum Inhibitory Concentration
# In short: as §1
# E. coli ML1410/Rte16 = assay: MIC by agar plate dilution method; details: Escherichia coli, ML1410/RTE16, read-out: Minimum Inhibitory Concentration, E. coli ML1410/Rte16; 10^6 CFU/ml
# In short: as §1
compound,measurement,setting,value
"CON=C(C(=O)NC1C(=O)N2C(C(=O)[O-])=C(C[N+]3(C)CCc4cc(O)c(O)cc4C3)CSC12)c1csc(N)n1 (stereo not drawn) [Ex. 3-E, 7-[(Z)-2-(2-aminothiazol-4-yl)-2-methoxyiminoacetamido]-3-(6,7-dihydroxy-2-methyl-1,2,3,4-tetrahydro-2-isoquinolinium)methyl-3-cephem-4-carboxylate]",antibacterial spot in bioautography,E. coli NIHJ,shows a spot exhibiting antibacterial activities at Rf=0.1
same,antibacterial spectrum,bacteria,exhibited the same antibacterial spectrum as the compound of Example 3 (E)
same,MIC,E. coli CSH2,0.1 µg/mL
same,MIC,P. aeruginosa AK109,0.78 µg/mL
same,MIC,E. coli NIHJJC-2,0.1 µg/mL
same,MIC,K. pneumoniae No. 42,0.39 µg/mL
same,MIC,P. vulgaris OB1043,0.78 µg/mL
same,MIC,S. aureus JS-1,6.25 µg/mL
same,MIC,E. coli W3630/Rms212,0.05 µg/mL
same,MIC,C. freundii No. 7,3.12 µg/mL
same,MIC,E. coli W3630/Rms213,1.56 µg/mL
same,MIC,P. mirabilis JY10,0.78 µg/mL
same,MIC,E. coli CSH,0.78 µg/mL
same,MIC,E. coli C/Rms149,0.1 µg/mL
same,MIC,E. cloaceae Nek 39,0.1 µg/mL
same,MIC,P. vulgaris No. 33,0.2 µg/mL
same,MIC,P. aeruginosa AKR17,3.12 µg/mL
same,MIC,A. calcoaceticus No. 14,0.39 µg/mL
same,MIC,S. marcescens No. 16-2,12.5 µg/mL
same,MIC,S. aureus NIHJJC-1,1.56 µg/mL
same,MIC,E. coli ML1410/Rte16,0.1 µg/mL
